Results reported in patent US10206394B2, “Herbicidal compounds” (Syngenta Participations AG, priority 2014, dated 2019).
Where two headings read alike, the source gives them in different places.

Columns and labels:
Assay in all cases: Glasshouse assay for herbicidal activity (pre- and post-emergence), percentage phytotoxicity
Type in all cases: in vivo
Lolium perenne (LOLPE) = conditions: Lolium perenne
Procedure: (§1) Test—Glasshouse Assay for Herbicidal Activity
(§2) Seeds of a variety of monocotyledonous and dicotyledonous test plants are sown in standard soil in pots. The plants are cultivated for one day (for pre-emergence (PRE)) or for about 12 days (for post-emergence (POST)) under controlled conditions in a glasshouse (warm climate species at 24/18° C., cool climate species at 20/16° C., both at day/night; 16 hours light; 65% humidity).
(§3) The test plants are then grown on, in a glasshouse (greenhouse) under controlled conditions (warm climate species at 24/18° C., cool climate species at 20/16° C., both at day/night; 16 hours light; 65% humidity) and are watered twice daily. 15 days after application of the test herbicide (15 DAA) (for post-emergence), and 20 days after application of the test herbicide (20 DAA) (for pre-emergence), the test plants are evaluated visually, and an assessed percentage phytotoxicity score is given for each herbicidal application on each plant species (with 100%=total damage to plant; 0%=no damage to plant).
(§4) The plant species tested are as follows: Alopecurus myosuroides (ALOMY), Avena fatua (AVEFA), Lolium perenne (LOLPE), Echinochloa crus-galli (ECHCG).

Avena fatua (AVEFA) = conditions: Avena fatua
Procedure: as §1, §2, §3, §4

[1] = test system: Alopecurus myosuroides (ALOMY); conditions: Alopecurus myosuroides
Procedure: as §1, §2, §3, §4

[2] = test system: Echinochloa crus-galli (ECHCG); conditions: Echinochloa crus-galli
Procedure: as §1, §2, §3, §4

[3] = post-emergence, 360 h, Rate 250 g/ha, post-emergence, assessed visually 15 DAA, 100%=total damage, 0%=no damage, read-out: Post-emergence herbicidal activity (percentage phytotoxicity) LOLPE POST
[4] = pre-emergence, 480 h, Rate 250 g/ha, pre-emergence, assessed visually 20 DAA, 100%=total damage, 0%=no damage, read-out: Pre-emergence herbicidal activity (percentage phytotoxicity) LOLPE PRE
[5] = post-emergence, 360 h, Rate 250 g/ha, post-emergence, assessed visually 15 DAA, 100%=total damage, 0%=no damage, read-out: Post-emergence herbicidal activity (percentage phytotoxicity) AVEFA POST
[6] = pre-emergence, 480 h, Rate 250 g/ha, pre-emergence, assessed visually 20 DAA, 100%=total damage, 0%=no damage, read-out: Pre-emergence herbicidal activity (percentage phytotoxicity) AVEFA PRE
[7] = post-emergence, 360 h, Rate 250 g/ha, post-emergence, assessed visually 15 DAA, 100%=total damage, 0%=no damage, read-out: Post-emergence herbicidal activity (percentage phytotoxicity) ALOMY POST
[8] = pre-emergence, 480 h, Rate 250 g/ha, pre-emergence, assessed visually 20 DAA, 100%=total damage, 0%=no damage, read-out: Pre-emergence herbicidal activity (percentage phytotoxicity) ALOMY PRE
[9] = post-emergence, 360 h, Rate 250 g/ha, post-emergence, assessed visually 15 DAA, 100%=total damage, 0%=no damage, read-out: Post-emergence herbicidal activity (percentage phytotoxicity) ECHCG POST
[10] = pre-emergence, 480 h, Rate 250 g/ha, pre-emergence, assessed visually 20 DAA, 100%=total damage, 0%=no damage, read-out: Pre-emergence herbicidal activity (percentage phytotoxicity) ECHCG PRE

| SMILES | pest or weed control at 250 g/ha (Lolium perenne (LOLPE); [3]) [%] | pest or weed control at 250 g/ha (Lolium perenne (LOLPE); [4]) [%] | pest or weed control at 250 g/ha (Avena fatua (AVEFA); [5]) [%] | pest or weed control at 250 g/ha (Avena fatua (AVEFA); [6]) [%] | pest or weed control at 250 g/ha [1, 7] [%] | pest or weed control at 250 g/ha [1, 8] [%] | pest or weed control at 250 g/ha [2, 9] [%] | pest or weed control at 250 g/ha [2, 10] [%] | pest or weed control at 250 g/ha (Lolium perenne (LOLPE); post-emergence, 360 h, post-emergence, 250 g/ha, 15 DAA, visual score (100%=total damage; 0%=no damage), read-out: LOLPE POST herbicidal activity (percentage phytotoxicity)) [%] | pest or weed control at 250 g/ha (Lolium perenne (LOLPE); pre-emergence, 480 h, pre-emergence, 250 g/ha, 20 DAA, visual score (100%=total damage; 0%=no damage), read-out: LOLPE PRE herbicidal activity (percentage phytotoxicity)) [%] | pest or weed control at 250 g/ha (Avena fatua (AVEFA); post-emergence, 360 h, post-emergence, 250 g/ha, 15 DAA, visual score (100%=total damage; 0%=no damage), read-out: AVEFA POST herbicidal activity (percentage phytotoxicity)) [%] | pest or weed control at 250 g/ha (Avena fatua (AVEFA); pre-emergence, 480 h, pre-emergence, 250 g/ha, 20 DAA, visual score (100%=total damage; 0%=no damage), read-out: AVEFA PRE herbicidal activity (percentage phytotoxicity)) [%] | pest or weed control at 250 g/ha ([1]; post-emergence, 360 h, post-emergence, 250 g/ha, 15 DAA, visual score (100%=total damage; 0%=no damage), read-out: ALOMY POST herbicidal activity (percentage phytotoxicity)) [%] | pest or weed control at 250 g/ha ([1]; pre-emergence, 480 h, pre-emergence, 250 g/ha, 20 DAA, visual score (100%=total damage; 0%=no damage), read-out: ALOMY PRE herbicidal activity (percentage phytotoxicity)) [%] | pest or weed control at 250 g/ha ([2]; post-emergence, 360 h, post-emergence, 250 g/ha, 15 DAA, visual score (100%=total damage; 0%=no damage), read-out: ECHCG POST herbicidal activity (percentage phytotoxicity)) [%] | pest or weed control at 250 g/ha ([2]; pre-emergence, 480 h, pre-emergence, 250 g/ha, 20 DAA, visual score (100%=total damage; 0%=no damage), read-out: ECHCG PRE herbicidal activity (percentage phytotoxicity)) [%] |
| --- | --- | --- | --- | --- | --- | --- | --- | --- | --- | --- | --- | --- | --- | --- | --- | --- |
| C#CC(C)(C)NC(=O)CC1CC(=O)C(c2c(C)cc(C#CC)cc2C)C1=O (single isomer, unassigned) [Compound A56] | 90 | 90 | 100 | 90 | 100 | 100 | 100 | 100 | – | – | – | – | – | – | – | – |
| C#CC(C)N(C)C(=O)CC1CC(=O)C(c2c(C)cc(C)cc2C)C1=O (single isomer, unassigned) [Compound A183] | – | – | – | – | – | – | – | – | 70 | 90 | 70 | 0 | 70 | 50 | 80 | 80 |
| CC#Cc1cc(C)c(C2C(=O)CC(CC(=O)NC(C)C)C2=O)c(C)c1 (centres unmarked) [Compound A8, 2-[3-(2,6-dimethyl-4-prop-1-ynyl-phenyl)-2,4-dioxo-cyclopentyl]-N-isopropyl-acetamide] | 100 | 100 | 100 | 100 | 100 | 100 | 100 | 100 | – | – | – | – | – | – | – | – |
| C#Cc1cc(C)c(C2C(=O)CC(CC(=O)NC(C)CC)C2=O)c(C)c1 (centres unmarked) [Compound A9, 2-[3-(4-ethynyl-2,6-dimethyl-phenyl)-2,4-dioxo-cyclopentyl]-N-sec-butyl-acetamide] | 80 | 90 | 100 | 90 | 80 | 90 | 90 | 100 | – | – | – | – | – | – | – | – |
| C#CCNC(=O)CC1CC(=O)C(c2c(C)cc(C)cc2C)C1=O (centres unmarked) [Compound A10] | 90 | 90 | 60 | 70 | 80 | 70 | 90 | 90 | – | – | – | – | – | – | – | – |
| C#CC(C)(C)NC(=O)CC1CC(=O)C(c2c(C)cc(C)cc2C)C1=O (centres unmarked) [Compound A11] | 70 | 70 | 70 | 50 | 80 | 70 | 80 | 70 | – | – | – | – | – | – | – | – |
| Cc1cc(C)c(C2C(=O)CC(CC(=O)NCC3CCOCC3)C2=O)c(C)c1 (centres unmarked) [Compound A13] | 80 | 70 | 70 | 40 | 80 | 50 | 80 | 100 | – | – | – | – | – | – | – | – |
| Cc1cc(C)c(C2C(=O)CC(CC(=O)NC3CCOCC3)C2=O)c(C)c1 (centres unmarked) [Compound A17] | 80 | 70 | 70 | 40 | 80 | 70 | 80 | 70 | – | – | – | – | – | – | – | – |
| Cc1ccc(CNC(=O)CC2CC(=O)C(c3c(C)cc(C)cc3C)C2=O)nc1 (centres unmarked) [Compound A23] | 80 | 70 | 70 | 60 | 80 | 80 | 90 | 100 | – | – | – | – | – | – | – | – |
| Cc1cc(C)c(C2C(=O)CC(CC(=O)N3CCOCC3)C2=O)c(C)c1 (centres unmarked) [Compound A24] | 100 | 90 | 90 | 90 | 90 | 80 | 100 | 100 | – | – | – | – | – | – | – | – |
| C#CCNC(=O)CC1CC(=O)C(c2c(C)cc(C#CC)cc2C)C1=O (centres unmarked) [Compound A28] | 100 | 90 | 100 | 100 | 100 | 100 | 100 | 90 | – | – | – | – | – | – | – | – |
| CC#Cc1cc(C)c(C2C(=O)CC(CC(=O)NCCCC)C2=O)c(C)c1 (centres unmarked) [Compound A29] | 100 | 100 | 100 | 90 | 100 | 100 | 100 | 100 | – | – | – | – | – | – | – | – |
| CC#Cc1cc(C)c(C2C(=O)CC(CC(=O)NCC(C)C)C2=O)c(C)c1 (centres unmarked) [Compound A30] | 100 | 100 | 100 | 100 | 100 | 100 | 100 | 100 | – | – | – | – | – | – | – | – |
| CC#Cc1cc(C)c(C2C(=O)CC(CC(=O)NC(C)(C)C)C2=O)c(C)c1 (centres unmarked) [Compound A31] | 100 | 100 | 100 | 90 | 100 | 100 | 100 | 100 | – | – | – | – | – | – | – | – |
| CC#Cc1cc(C)c(C2C(=O)CC(CC(=O)NC3CC3)C2=O)c(C)c1 (centres unmarked) [Compound A32] | 100 | 90 | 100 | 80 | 100 | 70 | 100 | 100 | – | – | – | – | – | – | – | – |
| CC#Cc1cc(C)c(C2C(=O)CC(CC(=O)NC(C)CC)C2=O)c(C)c1 (centres unmarked) [Compound A33] | 100 | 100 | 100 | 100 | 100 | 100 | 100 | 100 | – | – | – | – | – | – | – | – |
